System: skin incision model of postoperative pain
Experiment: Skin incision model of postoperative pain (tactile allodynia, von Frey)
Format: in vivo
Conditions: rat, rimonabant 30 μmol/kg i.p., vehicle 15 min later
From the text: Adult male Sprague-Dawley rats (250-300 g body weight, Charles River Laboratories, Portage, Mich.) were used. Animal handling and experimental protocols were approved by the Institutional Animal Care and Use Committee (IACUC) at Abbott Laboratories. For all surgical procedures, animals were maintained under halothane anesthesia (4% to induce, 2% to maintain), and the incision sites were sterilized using a 10% povidone-iodine solution prior to and after surgeries.
A skin incision model of postoperative pain was produced using the procedures described in Brennan et al., 1996, Pain, 64, 493. All rats were anesthetized with isoflurane delivered via a nose cone. Right hind paw incision was performed following sterilization procedures. The plantar aspect of the […] hind paw was placed through a hole in a sterile plastic drape. A 1-cm longitudinal incision was made through the skin and fascia of the plantar aspect of the hind paw, starting 0.5 cm from the proximal edge of the heel and extending towards the toes, the plantar muscle was elevated and incised longitudinally leaving the muscle origin and insertion points intact. The skin was then closed with two mattress sutures (5-0 nylon). After surgery, animals were then allowed to recover for 2 hours, at which time tactile allodynia was assessed as described below. To evaluate the anti-nociceptive effects, animals were i.p. administered vehicle or test compound 90 minutes following skin incision and tactile allodynia was typically assessed 30 minutes after compound administration.
Tactile allodynia was measured using calibrated von Frey filaments (Stoelting, Wood Dale, Ill.) as described in Chaplan, S. R., F. W. Bach, J. W. Porgrel, J. M. Chung and T. L. Yaksh, 1994, Quantitative assessment of tactile allodynia in the rat paw, J. Neurosci. Methods, 53, 55. Rats were placed into inverted individual plastic cage (20×12.5×20 cm) on top of a suspended wire mesh grid, and acclimated to the test chambers for 20 minutes. The von Frey filaments were applied perpendicularly from underneath the cage through openings in the wire mesh floor directly to an area within 1-3 mm (immediately adjacent) of the incision, and then held in this position for approximately 8 seconds with enough force to cause a slight bend in the filament. Positive responses included an abrupt withdrawal of the hind paw from the stimulus, or flinching behavior immediately following removal of the stimulus. A 50% withdrawal threshold was determined using an up-down procedure as described in Dixon, W. J., 1980, Efficient analysis of experimental observations, Ann. Rev. Pharmacol. Toxicol., 20, 441. The effect on paw withdrawal latency of test compounds compared to vehicle control represents the ability of the test compound to reduce allodynia. An increase in the paw withdrawal latency represents an anti-allodynic effect (i.e., a decrease in pain).
Using the skin incisional model of postoperative pain, the effects of compound A, CB2 agonist (Z)—N-(5-tert-butyl-3-butylthiazol-2(3H)-ylidene)-5-chloro-2-methoxybenzamide, on allodynia was assessed two hours after surgery.
Using the skin incisional model of postoperative pain, the effects of CB2 agonist A were evaluated after the administration of vehicle or the CB1 antagonist rimonabant. This effect was compared with the administration of vehicle after the administration of vehicle or the CB1 antagonist rimonabant. A first dose, consisting of CB1 antagonist rimonabant (30 μmol/kg i.p.) or a vehicle (5% DMSO/PEG), was administered 15 minutes before a second dose, consisting of administration of CB2 agonist A (30 μmol/kg i.p.) or vehicle. Allodynia testing was conducted 30 minutes after administration of the second dose, either CB2 agonist A or vehicle.

Cc1c(C(=O)NN2CCCCC2)nn(-c2ccc(Cl)cc2Cl)c1-c1ccc(Cl)cc1 [rimonabant, 5-(4-chlorophenyl)-1-(2,4-dichlorophenyl)-4-methyl-N-(piperidin-1-yl)-1H-pyrazole-3-carboxamide, reference compound]
tactile allodynia, rimonabant followed by vehicle: did not ameliorate the tactile allodynia

— patent publication US8044071B2, “Method for reducing side effects of CB2 receptor agonist therapy using a combination of a selective CB2 receptor agonist and a selective CB1 receptor antagonist” (Abbott Laboratories, priority 2007, dated 2011)
